# Patent publication US20250049777A1, “PHARMACEUTICALLY ACCEPTABLE SALT AND CRYSTALLINE FORM OF GLP-1 RECEPTOR AGONIST AND PREPARATION METHOD THEREFOR” (JIANGSU HENGRUI PHARMACEUTICALS CO., LTD., priority 2021, published 2025)
# Counter-ions that a name gives are not always drawn. Like-named read-outs stand apart in the source and are kept apart here.
# Key:
# [1] = Hygroscopicity of crystal forms of salts (DVS, 25° C.); format: physicochemical; settings: for Crystal form after DVS: 0% to 95% RH
# Text: According to the description of hygroscopic characteristics and the definition of hygroscopic weight gain in “9103 Guidelines for Hygroscopicity of Pharmaceuticals”, Chinese Pharmacopoeia, Volume IV, 2015 edition, the following are defined: • deliquescent: absorbing enough water to form a liquid; • extremely hygroscopic: having a hygroscopic weight gain of not less than 15%; • hygroscopic: having a hygroscopic weight gain of less than 15% and not less than 2%; • slightly hygroscopic: having a hygroscopic weight gain of less than 2% and not less than 0.2%; and • no or almost no hygroscopicity: having a hygroscopic weight gain of less than 0.2%.
# Surface Measurement Systems intrinsic DVS was used at 25° C. The observed humidity ranged from 0% to 95%. The step was 10%. The criterion was that the mass change dM/dT for each step was less than 0.002%. TMAX was 360 min. Two cycles were carried out.
# [2] = Stability of crystal forms of salts under influencing factors (illumination, high temperature, high humidity); format: physicochemical
# Text: The sampling and investigation period was 30 days.
# [3] = format: physicochemical
# Protocol: A salt-type sample was sealed with an aluminum foil bag and placed under the conditions of 25° C./60% RH and 40° C./75% RH, respectively, to investigate the stability.
# [4] = Illumination (4500 Lux), 7 days, open
# [5] = Illumination (4500 Lux), 14 days, open
# [6] = Illumination (4500 Lux), 30 days, open
# [7] = 25° C./60% RH, sealed aluminum foil bag
# [8] = 40° C./75% RH, sealed aluminum foil bag
# [9] = 25° C./60% RH, 1 month, sealed aluminum foil bag
# [10] = 25° C./60% RH, 3 months, sealed aluminum foil bag
# [11] = 40° C./75% RH, 1 month, sealed aluminum foil bag
# [12] = 40° C./75% RH, 3 months, sealed aluminum foil bag
# [13] = 25° C./60% RH, 2 months, sealed aluminum foil bag
# [14] = 40° C./75% RH, 2 months, sealed aluminum foil bag
# [15] = Illumination (4500 Lux), 5 days, open
# [16] = Illumination (4500 Lux), 10 days, open
compound,measurement,setting,value
"O=C(O)c1ccc2nc(CN3CCC(c4cccc5c4O[C@@H](c4ccc(Cl)cc4F)CO5)CC3)n(C[C@@H]3CCO3)c2c1 [Crystal form A of tromethamine salt, 2-((4-((S)-3-(4-chloro-2-fluorophenyl)-2,3-dihydrobenzo[b][1,4]dioxan-5-yl)piperidin-1-yl)methyl)-1-(((S)-oxetan-2-yl)methyl)-1H-benzo[d]imidazole-6-carboxylic acid]",hygroscopic weight gain 0.0% RH to 80.0% RH,[1],5.02%
same,Crystal form after DVS,[1],Unchanged
same,chemical stability,[2],slightly poor chemical stability
same,% Purity,"[2]; 40° C., 7 days, open",96.1%
same,Crystal form,"[2]; 40° C., 7 days, open",Unchanged
same,% Purity,"[2]; 40° C., 14 days, open",91.7%
same,Crystal form,"[2]; 40° C., 14 days, open",Unchanged
same,% Purity,"[2]; 40° C., 30 days, open",87.4%
same,Crystal form,"[2]; 40° C., 30 days, open",Unchanged
same,% Purity,"[2]; 60° C., 7 days, open",93.5%
same,Crystal form,"[2]; 60° C., 7 days, open",Unchanged
same,% Purity,"[2]; 60° C., 14 days, open",88.6%
same,Crystal form,"[2]; 60° C., 14 days, open",Unchanged
same,% Purity,"[2]; 75% RH, 7 days, open",99.4%
same,Crystal form,"[2]; 75% RH, 7 days, open",Unchanged
same,% Purity,"[2]; 75% RH, 14 days, open",99.4%
same,Crystal form,"[2]; 75% RH, 14 days, open",Unchanged
same,% Purity,"[2]; 75% RH, 30 days, open",99.3%
same,Crystal form,"[2]; 75% RH, 30 days, open",Unchanged
same,% Purity,"[2]; 92.5% RH, 7 days, open",99.3%
same,Crystal form,"[2]; 92.5% RH, 7 days, open",Unchanged
same,% Purity,"[2]; 92.5% RH, 14 days, open",99.0%
same,Crystal form,"[2]; 92.5% RH, 14 days, open",Unchanged
same,% Purity,"[2]; 92.5% RH, 30 days, open",98.6%
same,Crystal form,"[2]; 92.5% RH, 30 days, open",Unchanged
same,% Purity,[2]; [4],98.9%
same,Crystal form,[2]; [4],Unchanged
same,% Purity,[2]; [5],97.6%
same,Crystal form,[2]; [5],Unchanged
same,% Purity,[2]; [6],90.8%
same,Crystal form,[2]; [6],Unchanged
same,% Purity,"[2]; Initial condition, 0 days",99.5%
same,physical and chemical stability,[3],good physical and chemical stability
same,Crystal form,[3]; [7],Unchanged
same,Crystal form,[3]; [8],Unchanged
"O=C(O)c1ccc2nc(CN3CCC(c4cccc5c4O[C@@H](c4ccc(Cl)cc4F)CO5)CC3)n(C[C@@H]3CCO3)c2c1 [Crystal form D of tromethamine salt, 2-((4-((S)-3-(4-chloro-2-fluorophenyl)-2,3-dihydrobenzo[b][1,4]dioxan-5-yl)piperidin-1-yl)methyl)-1-(((S)-oxetan-2-yl)methyl)-1H-benzo[d]imidazole-6-carboxylic acid]",hygroscopic weight gain 0.0% RH to 80.0% RH,[1],2.45%
same,Crystal form after DVS,[1],Unchanged
same,% Purity,"[2]; 40° C., 7 days, open",99.5%
same,Crystal form,"[2]; 40° C., 7 days, open",Unchanged
same,% Purity,"[2]; 40° C., 14 days, open",99.3%
same,Crystal form,"[2]; 40° C., 14 days, open",Unchanged
same,% Purity,"[2]; 40° C., 30 days, open",99.3%
same,Crystal form,"[2]; 40° C., 30 days, open",Unchanged
same,% Purity,"[2]; 60° C., 7 days, open",99.4%
same,Crystal form,"[2]; 60° C., 7 days, open",Unchanged
same,% Purity,"[2]; 60° C., 14 days, open",99.1%
same,Crystal form,"[2]; 60° C., 14 days, open",Unchanged
same,% Purity,"[2]; 60° C., 30 days, open",99.0%
same,Crystal form,"[2]; 60° C., 30 days, open",Unchanged
same,% Purity,"[2]; 75% RH, 7 days, open",99.7%
same,Crystal form,"[2]; 75% RH, 7 days, open",Unchanged
same,% Purity,"[2]; 75% RH, 14 days, open",99.6%
same,Crystal form,"[2]; 75% RH, 14 days, open",Unchanged
same,% Purity,"[2]; 75% RH, 30 days, open",99.6%
same,Crystal form,"[2]; 75% RH, 30 days, open",Unchanged
same,% Purity,"[2]; 92.5% RH, 7 days, open",99.5%
same,Crystal form,"[2]; 92.5% RH, 7 days, open",Unchanged
same,% Purity,"[2]; 92.5% RH, 14 days, open",99.4%
same,Crystal form,"[2]; 92.5% RH, 14 days, open",Unchanged
same,% Purity,"[2]; 92.5% RH, 30 days, open",99.0%
same,Crystal form,"[2]; 92.5% RH, 30 days, open",Unchanged
same,% Purity,[2]; [4],99.6%
same,Crystal form,[2]; [4],Unchanged
same,% Purity,[2]; [5],99.6%
same,Crystal form,[2]; [5],Unchanged
same,% Purity,[2]; [6],99.6%
same,Crystal form,[2]; [6],Unchanged
same,% Purity,"[2]; Initial condition, 0 days",99.7%
same,physical and chemical stability,[3],good physical and chemical stability
same,% Purity,[3]; [9],99.7%
same,% Purity,[3]; [10],99.7%
same,Crystal form,[3]; [7],Unchanged
same,% Purity,[3]; [11],99.5%
same,% Purity,[3]; [12],99.1%
same,Crystal form,[3]; [8],Unchanged
same,% Purity,[3]; Initial condition,99.7%
"O=C(O)c1ccc2nc(CN3CCC(c4cccc5c4O[C@@H](c4ccc(Cl)cc4F)CO5)CC3)n(C[C@@H]3CCO3)c2c1 [Crystal form E of tromethamine salt, 2-((4-((S)-3-(4-chloro-2-fluorophenyl)-2,3-dihydrobenzo[b][1,4]dioxan-5-yl)piperidin-1-yl)methyl)-1-(((S)-oxetan-2-yl)methyl)-1H-benzo[d]imidazole-6-carboxylic acid]",hygroscopic weight gain 0.0% RH to 80.0% RH,[1],7.27%
same,Crystal form after DVS,[1],Unchanged
same,chemical stability,[2],slightly poor chemical stability
same,physical stability,[2],slightly poor physical stability
same,% Purity,"[2]; 40° C., 7 days, open",96.0%
same,Crystal form,"[2]; 40° C., 7 days, open",Unchanged
same,% Purity,"[2]; 40° C., 14 days, open",93.6%
same,Crystal form,"[2]; 40° C., 14 days, open",Unchanged
same,% Purity,"[2]; 40° C., 30 days, open",85.0%
same,Crystal form,"[2]; 40° C., 30 days, open",Unchanged
same,% Purity,"[2]; 60° C., 7 days, open",94.8%
same,Crystal form,"[2]; 60° C., 7 days, open",Unchanged
same,% Purity,"[2]; 60° C., 30 days, open",81.8%
same,Crystal form,"[2]; 60° C., 30 days, open",Amorphous form
same,% Purity,"[2]; 75% RH, 7 days, open",98.3%
same,Crystal form,"[2]; 75% RH, 7 days, open",Unchanged
same,% Purity,"[2]; 75% RH, 14 days, open",98.4%
same,Crystal form,"[2]; 75% RH, 14 days, open",Unchanged
same,% Purity,"[2]; 75% RH, 30 days, open",98.3%
same,Crystal form,"[2]; 75% RH, 30 days, open",Unchanged
same,% Purity,"[2]; 92.5% RH, 7 days, open",98.2%
same,Crystal form,"[2]; 92.5% RH, 7 days, open",Unchanged
same,% Purity,"[2]; 92.5% RH, 14 days, open",98.2%
same,Crystal form,"[2]; 92.5% RH, 14 days, open",Unchanged
same,% Purity,"[2]; 92.5% RH, 30 days, open",98.1%
same,Crystal form,"[2]; 92.5% RH, 30 days, open",Amorphous form
same,% Purity,[2]; [4],98.1%
same,Crystal form,[2]; [4],Unchanged
same,% Purity,[2]; [5],97.9%
same,Crystal form,[2]; [5],Unchanged
same,% Purity,[2]; [6],95.5%
same,Crystal form,[2]; [6],Unchanged
same,% Purity,"[2]; Initial condition, 0 days",98.3%
same,physical and chemical stability,[3],good physical and chemical stability
same,% Purity,[3]; [9],98.2%
same,% Purity,[3]; [13],98.3%
same,% Purity,[3]; [10],98.1%
same,Crystal form,[3]; [7],Unchanged
same,% Purity,[3]; [11],97.7%
same,% Purity,[3]; [14],97.7%
same,% Purity,[3]; [12],97.2%
same,Crystal form,[3]; [8],Unchanged
same,% Purity,[3]; Initial condition,98.3%
"O=C(O)c1ccc2nc(CN3CCC(c4cccc5c4O[C@@H](c4ccc(Cl)cc4F)CO5)CC3)n(C[C@@H]3CCO3)c2c1 [Crystal form I of hydrochloride salt, 2-((4-((S)-3-(4-chloro-2-fluorophenyl)-2,3-dihydrobenzo[b][1,4]dioxan-5-yl)piperidin-1-yl)methyl)-1-(((S)-oxetan-2-yl)methyl)-1H-benzo[d]imidazole-6-carboxylic acid]",% Purity,"[2]; 40° C., 5 days, open",98.0%
same,Crystal form,"[2]; 40° C., 5 days, open",Unchanged
same,% Purity,"[2]; 40° C., 10 days, open",98.1%
same,Crystal form,"[2]; 40° C., 10 days, open",Unchanged
same,% Purity,"[2]; 40° C., 30 days, open",97.8%
same,Crystal form,"[2]; 40° C., 30 days, open",Unchanged
same,% Purity,"[2]; 60° C., 5 days, open",97.6%
same,Crystal form,"[2]; 60° C., 5 days, open",Unchanged
same,% Purity,"[2]; 60° C., 10 days, open",97.7%
same,Crystal form,"[2]; 60° C., 10 days, open",Unchanged
same,% Purity,"[2]; 60° C., 30 days, open",97.7%
same,Crystal form,"[2]; 60° C., 30 days, open",Unchanged
same,% Purity,"[2]; 75% RH, 5 days, open",98.1%
same,Crystal form,"[2]; 75% RH, 5 days, open",Unchanged
same,% Purity,"[2]; 75% RH, 10 days, open",98.0%
same,Crystal form,"[2]; 75% RH, 10 days, open",Unchanged
same,% Purity,"[2]; 75% RH, 30 days, open",98.1%
same,Crystal form,"[2]; 75% RH, 30 days, open",Unchanged
same,% Purity,"[2]; 92.5% RH, 5 days, open",98.1%
same,Crystal form,"[2]; 92.5% RH, 5 days, open",Unchanged
same,% Purity,"[2]; 92.5% RH, 10 days, open",97.4%
same,Crystal form,"[2]; 92.5% RH, 10 days, open",Unchanged
same,% Purity,"[2]; 92.5% RH, 30 days, open",96.9%
same,Crystal form,"[2]; 92.5% RH, 30 days, open",Unchanged
same,% Purity,[2]; [15],97.9%
same,Crystal form,[2]; [15],Unchanged
same,% Purity,[2]; [16],98.1%
same,Crystal form,[2]; [16],Unchanged
same,% Purity,[2]; [6],98.0%
same,Crystal form,[2]; [6],Unchanged
same,% Purity,"[2]; Initial condition, 0 days",98.0%
same,physical and chemical stability,[3],good physical and chemical stability
same,% Purity,[3]; [9],98.1%
same,% Purity,[3]; [13],97.9%
same,Crystal form,[3]; [7],Unchanged
same,% Purity,[3]; [11],97.8%
same,% Purity,[3]; [14],97.8%
same,Crystal form,[3]; [8],Unchanged
same,% Purity,[3]; Initial condition,98.0%
"O=C(O)c1ccc2nc(CN3CCC(c4cccc5c4O[C@@H](c4ccc(Cl)cc4F)CO5)CC3)n(C[C@@H]3CCO3)c2c1 [Crystal form α of malate salt, 2-((4-((S)-3-(4-chloro-2-fluorophenyl)-2,3-dihydrobenzo[b][1,4]dioxan-5-yl)piperidin-1-yl)methyl)-1-(((S)-oxetan-2-yl)methyl)-1H-benzo[d]imidazole-6-carboxylic acid]",% Purity,"[2]; 92.5% RH, 5 days, open, listed as crystal form a of malate salt",99.0%
same,% Purity,"[2]; Initial condition, 0 days, listed as crystal form a of malate salt",99.0%
same,% Purity,[3]; [12],97.1%
same,% Purity,[3]; Initial condition,99.0%
